{"source": "patent US20250352514A1", "about": "“SALT FORMS OF BIS(3-(2-(DIMETHYLAMINO)ETHYL)-1 H-INDOL-4-YL) 3,3'¬OXYDIPROPIONATE” (priority 2024, published 2025)", "assay": "Initial polymorphism assessment by slurrying in 12 solvents at room temperature, XRPD", "format": "physicochemical", "settings": "shaken at room temperature 3-4 days", "source_text": "The vials were capped, sealed with Parafilm®, and then covered with foil. The experiments were shaken at room temperature for 4 days. After 4 days all the experiments had remained as slurries apart from the experiment in water. Portions of solid were removed from each one and analyzed by XRPD.\nThe vials were capped, sealed with Parafilm® and then covered with foil. The experiments were shaken at room temperature for 3 days. After 3 days all the experiments had remained as slurries. Portions were removed from each one and analyzed by XRPD.", "data": [{"smiles": "CN(C)CCc1c[nH]c2cccc(OC(=O)CCOCCC(=O)Oc3cccc4[nH]cc(CCN(C)C)c34)c12", "values": [{"measurement": "XRPD patterns after slurrying in 12 solvents compared with input material", "result": "XRPD patterns consistent with the XRPD pattern of the input material"}]}]}
